{"source": "patent US5712270A", "about": "“2-arylamidothiazole derivatives with CNS activity” (American Home Products Corporation, priority 1996, dated 1998)", "key": {"[1]": {"test_system": "scopolamine-induced hyperactivity", "experiment": "Reversal of scopolamine-induced hyperactivity in mice (swim tank)", "format": "in vivo, Male CFW mice", "settings": "Mus musculus, ip, 5 min, 0.3 mg/kg scopolamine.HBr, i.p., mean swimming distance, read-out: minimum effective dose (MED), reversal of scopolamine hyperactivity", "protocol": "The compound of Example 1 was also tested in accordance with the procedure of Symons et al, Soc. Neuroscience Abstracts 12:2, 897 (1986) in which Male CFW mice, 25 to 35 grams in weight are given the test compound in suitable vehicle plus 0.3 mg/kg scopoolamine.HBr in suitable vehicle, i.p.(3 groups of 12 animals each) or vehicle alone (1 group of 12 animals ) or vehicle plus scopolamine. HBr (1 group of 12 animals). The rates are placed in a swim tank, individually, containing 10 cm H2 O for a period of 5 minutes and the distance each animal swims is recorded."}, "[2]": {"test_system": "memory in patients with mild to moderate Alzheimer's Disease", "settings": "cited from earlier work; for memory improvement in patients: mild to moderate Alzheimer's Disease"}, "[3]": {"test_system": "serotonin 5-HT1A receptor", "settings": "standard for anxiolytic activity; cited from earlier work"}}, "data": [{"smiles": "CN(C)CCOC(=O)c1csc(NC(=O)c2cc(C(C)(C)C)c(O)c(C(C)(C)C)c2)n1", "note": "[Example 1, 2-[[3,5,-Bis(1,1-dimethylethl)-4-hydroxybenzoyl]amino]-4-thiazolecarboxylicacid 2-(dimethylamino)ethyl ester]", "values": [{"measurement": "minimal effective dose", "setting": "[1]", "value": 3, "unit": "mg/kg"}]}, {"smiles": "COC(=O)C1=CCCN(C)C1", "note": "[arecoline]", "values": [{"measurement": "memory improvement in patients", "setting": "[2]", "value": "memory improvement in patients with mild to moderate Alzheimer's Disease"}]}, {"smiles": "O=C1CC2(CCCC2)CC(=O)N1CCCCN1CCN(c2ncccn2)CC1", "note": "[buspirone]", "values": [{"measurement": "affinity for the 5-HT1A serotonin receptor subtype (words, buspirone)", "setting": "[3]", "value": "potent affinity"}]}, {"smiles": "Nc1c2c(nc3ccccc13)CCCC2", "note": "[tacrine]", "values": [{"measurement": "side effects", "setting": "[2]; especially at the higher doses", "value": "adverse side effects especially at the higher doses"}, {"measurement": "memory improvement in patients", "setting": "[2]", "value": "improvement in memory can be shown in patients with mild to moderate Alzheimer's Disease"}]}]}
